Laboratory results published in the supplement of paper PMC10307832.

What was measured:
Assay in all cases: relative viability (nuclei count vs DMSO), 5 days (fraction); higher = more cells survive
Mirin + Phenformin = compound: N=C1NC(=O)/C(=C/c2ccc(O)cc2)S1 [Mirin] + N=C(N)NC(=N)NCCc1ccccc1 [Phenformin] (partner 250 µM)
Method in brief: (§1)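 For relative viability, nuclei counts in treated wells were divided by those in vehicle wells. Lung cancer cell lines had been pin-tool dosed in 1536-well plates the day after seeding and cultured for 5 days, then fixed and stained in one step (final 0.05% Triton X-100, 1% formaldehyde, 1 ug/ml Hoechst) and imaged at 4×. Doses were one drug alone or a fixed anchor-drug dose plus five library-drug doses (not always all listed) in √10 steps, and values are duplicate-plate medians.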

[1] = compound: CCC1=CN=CN=C1N2CCN(CC2)CC3=NC4=C(N3)C=C(C=C4)C(F)(F)F + COc1cccc2cc(-c3nc([C@H]4CC[C@H](C(=O)O)CC4)n4ncnc(N)c34)[nH]c12 [OSI-027] (partner 0.5 µM)
Method in brief: as §1

Mirin + OSI-027 = compound: N=C1NC(=O)/C(=C/c2ccc(O)cc2)S1 [Mirin] + COc1cccc2cc(-c3nc([C@H]4CC[C@H](C(=O)O)CC4)n4ncnc(N)c34)[nH]c12 [OSI-027] (partner 0.5 µM)
Method in brief: as §1

[2] = compound: CCn1c(-c2nonc2N)nc2cnc(Oc3cccc(NC(=O)c4ccc(OCCN5CCOCC5)cc4)c3)cc21 + NC(=O)Nc1cc(-c2cccc(F)c2)sc1C(=O)N[C@H]1CCCNC1 [AZD7762] (partner 0.2 µM)
Method in brief: as §1

Cell Line	relative viability (Mirin + Phenformin; first compound 0.25 µM)	relative viability (Mirin + Phenformin; first compound 0.7906 µM)	relative viability (Mirin + Phenformin; first compound 2.5 µM)	relative viability (Mirin + Phenformin; first compound 7.906 µM)	relative viability (Mirin + Phenformin; first compound 25 µM)	relative viability ([1]; first compound 0.04 µM)	relative viability ([1]; first compound 0.1265 µM)	relative viability ([1]; first compound 0.4 µM)	relative viability ([1]; first compound 1.265 µM)	relative viability ([1]; first compound 4 µM)	relative viability (Mirin + OSI-027; first compound 0.25 µM)	relative viability (Mirin + OSI-027; first compound 0.7906 µM)	relative viability (Mirin + OSI-027; first compound 2.5 µM)	relative viability (Mirin + OSI-027; first compound 7.906 µM)	relative viability (Mirin + OSI-027; first compound 25 µM)	relative viability ([2]; first compound 0.04 µM)	relative viability ([2]; first compound 0.1265 µM)	relative viability ([2]; first compound 0.4 µM)	relative viability ([2]; first compound 1.265 µM)	relative viability ([2]; first compound 4 µM)
HCC-44	0.165	0.102	0.126	0.213	0.314	0.479	0.446	0.532	0.416	0.406	0.441	0.491	0.483	0.428	0.485	1.07	1.18	0.916	0.975	0.333
HCC-78	0.661	0.616	0.867	0.571	0.793	0.347	0.37	0.359	0.381	0.372	0.37	0.366	0.419	0.292	0.349	0.865	0.821	–	0.617	0.906
COR-L23	0.465	0.46	0.45	0.469	0.481	0.777	0.783	0.605	0.635	0.7	0.803	0.816	0.761	0.69	0.728	–	–	–	–	–
NCI-H1993	0.459	–	0.517	0.586	0.623	0.49	0.55	0.614	0.494	0.604	0.549	–	0.578	0.496	0.539	0.763	0.701	0.598	0.742	0.742
NCI-H3122	0.378	0.426	0.414	0.378	0.467	1.02	0.974	0.937	0.938	1.17	0.954	0.809	0.921	0.887	0.902	1.06	0.984	0.939	0.871	0.739
NCI-H2228	0.377	0.299	0.303	0.295	0.309	0.535	0.633	0.487	0.635	0.656	0.57	0.44	0.515	0.575	0.538	–	–	–	–	–
NCI-H1944	0.206	0.227	0.186	0.169	0.167	0.524	0.382	0.385	0.338	0.39	0.445	0.344	0.391	0.375	0.314	0.5	0.524	0.297	0.249	0.202
NCI-H2342	0.724	0.559	0.658	0.37	0.48	0.607	0.577	0.574	0.479	0.586	0.618	0.634	0.579	0.489	0.558	0.572	0.551	0.361	0.422	0.459
NCI-H358	0.344	0.347	0.318	0.313	0.213	0.867	0.656	0.772	0.62	0.764	0.783	0.843	0.793	0.542	0.368	0.517	0.56	0.329	0.293	0.337
NCI-H1734	0.395	0.324	0.35	0.394	0.352	0.601	0.557	0.58	0.513	0.714	0.636	0.574	0.525	0.548	0.488	0.581	0.423	0.274	0.22	0.224
A-427	0.311	–	0.363	0.266	0.348	0.432	0.476	0.413	0.434	0.417	0.484	–	0.525	0.272	0.411	0.774	0.503	0.364	0.188	0.21
SK-LU-1	0.643	0.486	0.522	0.497	0.44	0.386	0.315	0.337	0.3	0.357	0.387	0.35	0.333	0.276	0.228	–	–	–	–	–
NCI-H2023	0.419	0.461	0.442	0.426	0.418	0.447	0.403	0.342	0.321	0.453	0.407	0.466	0.401	0.356	0.285	–	–	–	–	–
NCI-H1563	0.668	0.76	0.67	0.703	0.657	0.813	0.788	0.733	0.685	0.821	0.697	0.816	0.744	0.731	0.648	–	–	–	–	–
NCI-H520	0.751	0.459	0.701	0.338	0.356	0.261	0.32	0.268	0.214	0.248	0.241	0.289	0.257	0.222	0.177	–	–	–	–	–
NCI-H661	0.292	0.278	0.287	0.272	0.247	0.629	0.674	0.669	0.586	0.621	0.755	0.893	0.702	0.62	0.606	–	–	–	–	–
SK-MES-1	0.678	0.852	0.693	0.746	0.771	0.648	0.592	0.597	0.57	0.622	0.584	0.643	0.684	0.558	0.528	–	–	–	–	–
NCI-H1650	0.39	0.456	0.435	0.423	0.295	0.635	0.621	0.565	–	0.752	0.577	0.601	0.729	0.643	0.403	–	–	–	–	–
NCI-H1703	–	–	–	–	–	–	–	–	–	–	–	–	–	–	–	–	0.111	0.115	0.119	0.123
